Source: PMC6704710, “Preclinical evaluation of 3D185, a novel potent inhibitor of FGFR1/2/3 and CSF-1R, in FGFR-dependent and macrophage-dominant cancer models” (Journal of Experimental & Clinical Cancer Research : CR, 2019)

How the values were obtained:
Experiment in all cases: Eurofins kinase panel
Assay type in all cases: biochemical
Details in all cases: read-out: Inhibition rate (%)
EphA3(h) = biological target: T1, EphA3(h) (Homo sapiens, UniProt P29320)
T1 construct: purchased Eurofins (KinaseProfiler)
T1 sequence (P29320 21-983): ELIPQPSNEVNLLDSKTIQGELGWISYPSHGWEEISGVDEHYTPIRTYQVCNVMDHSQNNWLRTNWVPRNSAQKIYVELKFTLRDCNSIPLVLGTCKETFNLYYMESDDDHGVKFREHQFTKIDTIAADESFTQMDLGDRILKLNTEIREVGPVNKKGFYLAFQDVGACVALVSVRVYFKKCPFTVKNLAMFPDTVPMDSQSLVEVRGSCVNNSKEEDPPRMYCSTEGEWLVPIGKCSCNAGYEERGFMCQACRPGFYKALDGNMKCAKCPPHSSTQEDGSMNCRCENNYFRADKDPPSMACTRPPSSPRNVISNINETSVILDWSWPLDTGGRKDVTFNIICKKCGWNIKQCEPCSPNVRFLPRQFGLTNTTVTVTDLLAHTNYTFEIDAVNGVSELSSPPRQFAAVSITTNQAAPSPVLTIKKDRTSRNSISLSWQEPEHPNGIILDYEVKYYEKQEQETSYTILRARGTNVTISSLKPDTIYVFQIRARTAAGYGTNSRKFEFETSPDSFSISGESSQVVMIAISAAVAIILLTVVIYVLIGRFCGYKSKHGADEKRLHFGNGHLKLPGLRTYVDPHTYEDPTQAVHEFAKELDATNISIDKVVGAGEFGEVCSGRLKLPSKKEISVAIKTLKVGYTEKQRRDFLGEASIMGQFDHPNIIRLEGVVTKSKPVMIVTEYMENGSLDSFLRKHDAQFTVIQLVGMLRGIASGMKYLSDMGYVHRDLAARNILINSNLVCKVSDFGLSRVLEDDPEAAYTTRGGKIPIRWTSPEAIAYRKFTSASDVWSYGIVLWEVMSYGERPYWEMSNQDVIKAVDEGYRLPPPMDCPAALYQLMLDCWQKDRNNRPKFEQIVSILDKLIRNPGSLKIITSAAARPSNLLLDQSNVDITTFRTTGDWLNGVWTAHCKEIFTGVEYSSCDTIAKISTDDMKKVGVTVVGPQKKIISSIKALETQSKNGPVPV

MLCK(h) = biological target: T2, MLCK(h) (Homo sapiens, UniProt Q15746)
T2 construct: purchased Eurofins (KinaseProfiler)
T2 sequence (Q15746 whole entry): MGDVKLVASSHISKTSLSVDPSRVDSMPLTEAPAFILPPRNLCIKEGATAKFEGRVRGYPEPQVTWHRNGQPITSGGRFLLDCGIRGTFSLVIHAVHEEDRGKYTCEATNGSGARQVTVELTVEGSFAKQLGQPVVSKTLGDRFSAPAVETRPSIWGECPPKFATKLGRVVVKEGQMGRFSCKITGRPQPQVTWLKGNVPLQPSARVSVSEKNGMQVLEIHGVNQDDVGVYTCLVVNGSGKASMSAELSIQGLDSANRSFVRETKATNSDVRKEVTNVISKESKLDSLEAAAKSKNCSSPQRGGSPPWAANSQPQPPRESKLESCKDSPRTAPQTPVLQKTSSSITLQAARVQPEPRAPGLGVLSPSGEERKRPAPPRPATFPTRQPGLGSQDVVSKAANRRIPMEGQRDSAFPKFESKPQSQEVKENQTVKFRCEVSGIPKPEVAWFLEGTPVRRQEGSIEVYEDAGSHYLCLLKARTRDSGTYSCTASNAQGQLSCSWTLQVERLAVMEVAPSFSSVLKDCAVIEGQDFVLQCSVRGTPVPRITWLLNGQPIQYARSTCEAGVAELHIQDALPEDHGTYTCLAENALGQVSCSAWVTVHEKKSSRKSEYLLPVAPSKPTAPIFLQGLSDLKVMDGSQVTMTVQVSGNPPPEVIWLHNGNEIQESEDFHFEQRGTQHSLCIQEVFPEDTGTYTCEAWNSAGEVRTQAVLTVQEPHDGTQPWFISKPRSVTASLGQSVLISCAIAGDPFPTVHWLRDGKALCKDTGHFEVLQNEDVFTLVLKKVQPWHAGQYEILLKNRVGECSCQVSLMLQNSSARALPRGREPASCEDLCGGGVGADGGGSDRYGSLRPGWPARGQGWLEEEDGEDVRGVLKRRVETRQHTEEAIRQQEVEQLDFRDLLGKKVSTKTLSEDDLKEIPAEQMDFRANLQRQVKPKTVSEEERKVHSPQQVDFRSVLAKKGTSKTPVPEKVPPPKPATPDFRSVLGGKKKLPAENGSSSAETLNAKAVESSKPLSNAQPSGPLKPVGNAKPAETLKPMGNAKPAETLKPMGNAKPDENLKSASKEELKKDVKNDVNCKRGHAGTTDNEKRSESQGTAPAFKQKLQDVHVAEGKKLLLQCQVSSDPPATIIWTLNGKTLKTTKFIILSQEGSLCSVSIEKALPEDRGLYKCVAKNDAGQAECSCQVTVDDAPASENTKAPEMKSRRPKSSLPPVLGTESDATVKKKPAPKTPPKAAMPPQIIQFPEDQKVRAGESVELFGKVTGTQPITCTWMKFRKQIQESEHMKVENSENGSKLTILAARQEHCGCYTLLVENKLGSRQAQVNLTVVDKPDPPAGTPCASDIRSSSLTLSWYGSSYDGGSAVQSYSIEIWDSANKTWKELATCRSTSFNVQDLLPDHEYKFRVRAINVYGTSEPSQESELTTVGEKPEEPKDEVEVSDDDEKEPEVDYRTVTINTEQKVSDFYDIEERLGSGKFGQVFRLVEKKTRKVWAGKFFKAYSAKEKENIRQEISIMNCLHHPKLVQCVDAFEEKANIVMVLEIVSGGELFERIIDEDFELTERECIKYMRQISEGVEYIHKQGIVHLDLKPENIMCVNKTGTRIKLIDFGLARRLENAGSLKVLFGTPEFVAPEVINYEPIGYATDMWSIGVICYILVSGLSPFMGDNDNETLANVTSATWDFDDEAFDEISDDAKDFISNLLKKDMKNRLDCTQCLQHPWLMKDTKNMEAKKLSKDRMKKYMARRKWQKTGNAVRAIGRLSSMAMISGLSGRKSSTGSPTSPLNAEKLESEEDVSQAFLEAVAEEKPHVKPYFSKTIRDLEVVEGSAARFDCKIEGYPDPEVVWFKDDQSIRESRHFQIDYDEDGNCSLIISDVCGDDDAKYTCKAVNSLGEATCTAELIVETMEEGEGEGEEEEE

PrKX(h) = biological target: T3, PrKX(h) (Homo sapiens, UniProt P51817)
T3 construct: purchased Eurofins (KinaseProfiler)
T3 sequence (P51817 1-358): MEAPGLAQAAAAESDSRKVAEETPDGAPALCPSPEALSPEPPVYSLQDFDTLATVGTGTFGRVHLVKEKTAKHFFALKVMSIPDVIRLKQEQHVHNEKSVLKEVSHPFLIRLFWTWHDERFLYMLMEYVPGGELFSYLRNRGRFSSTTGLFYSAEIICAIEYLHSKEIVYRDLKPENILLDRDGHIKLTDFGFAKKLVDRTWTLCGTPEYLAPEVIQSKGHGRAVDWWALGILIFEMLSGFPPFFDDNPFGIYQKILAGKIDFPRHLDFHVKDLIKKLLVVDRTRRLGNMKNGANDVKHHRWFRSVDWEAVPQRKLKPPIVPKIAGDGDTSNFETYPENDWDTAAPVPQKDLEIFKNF

Ret(h) = biological target: T4, Ret(h) (Homo sapiens, UniProt P07949)
T4 construct: purchased Eurofins (KinaseProfiler)
T4 sequence (P07949 29-1114): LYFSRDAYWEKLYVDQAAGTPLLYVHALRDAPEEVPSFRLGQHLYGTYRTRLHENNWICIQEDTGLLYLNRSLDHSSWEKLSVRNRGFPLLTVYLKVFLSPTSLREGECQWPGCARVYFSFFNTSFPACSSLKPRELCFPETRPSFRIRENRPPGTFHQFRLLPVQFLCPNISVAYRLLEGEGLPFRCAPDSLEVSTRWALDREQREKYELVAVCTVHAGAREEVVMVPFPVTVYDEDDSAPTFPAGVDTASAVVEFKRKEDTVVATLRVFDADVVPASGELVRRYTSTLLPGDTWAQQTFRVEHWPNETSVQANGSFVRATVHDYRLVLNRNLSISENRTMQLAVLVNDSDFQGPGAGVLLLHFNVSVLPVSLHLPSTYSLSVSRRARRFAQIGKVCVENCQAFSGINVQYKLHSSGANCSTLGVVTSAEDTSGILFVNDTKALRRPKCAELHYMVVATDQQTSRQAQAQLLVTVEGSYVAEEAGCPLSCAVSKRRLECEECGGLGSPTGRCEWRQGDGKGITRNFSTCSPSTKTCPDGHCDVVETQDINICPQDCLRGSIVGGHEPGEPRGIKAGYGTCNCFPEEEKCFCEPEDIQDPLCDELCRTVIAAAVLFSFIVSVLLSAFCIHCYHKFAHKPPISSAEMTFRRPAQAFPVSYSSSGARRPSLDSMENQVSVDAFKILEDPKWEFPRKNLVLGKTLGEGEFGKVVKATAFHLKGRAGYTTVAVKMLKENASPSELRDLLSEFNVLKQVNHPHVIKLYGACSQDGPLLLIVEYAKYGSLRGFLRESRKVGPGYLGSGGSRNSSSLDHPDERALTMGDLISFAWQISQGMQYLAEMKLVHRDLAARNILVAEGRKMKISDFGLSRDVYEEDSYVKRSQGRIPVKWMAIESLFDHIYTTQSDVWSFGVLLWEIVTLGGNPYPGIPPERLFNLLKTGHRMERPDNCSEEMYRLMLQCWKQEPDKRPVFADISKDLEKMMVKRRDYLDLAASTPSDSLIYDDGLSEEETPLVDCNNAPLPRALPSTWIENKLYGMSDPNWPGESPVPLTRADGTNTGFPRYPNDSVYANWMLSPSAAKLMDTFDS

GRK7(h) = biological target: T5, GRK7(h) (Homo sapiens, UniProt Q8WTQ7)
T5 construct: purchased Eurofins (KinaseProfiler)
T5 sequence (Q8WTQ7 1-553): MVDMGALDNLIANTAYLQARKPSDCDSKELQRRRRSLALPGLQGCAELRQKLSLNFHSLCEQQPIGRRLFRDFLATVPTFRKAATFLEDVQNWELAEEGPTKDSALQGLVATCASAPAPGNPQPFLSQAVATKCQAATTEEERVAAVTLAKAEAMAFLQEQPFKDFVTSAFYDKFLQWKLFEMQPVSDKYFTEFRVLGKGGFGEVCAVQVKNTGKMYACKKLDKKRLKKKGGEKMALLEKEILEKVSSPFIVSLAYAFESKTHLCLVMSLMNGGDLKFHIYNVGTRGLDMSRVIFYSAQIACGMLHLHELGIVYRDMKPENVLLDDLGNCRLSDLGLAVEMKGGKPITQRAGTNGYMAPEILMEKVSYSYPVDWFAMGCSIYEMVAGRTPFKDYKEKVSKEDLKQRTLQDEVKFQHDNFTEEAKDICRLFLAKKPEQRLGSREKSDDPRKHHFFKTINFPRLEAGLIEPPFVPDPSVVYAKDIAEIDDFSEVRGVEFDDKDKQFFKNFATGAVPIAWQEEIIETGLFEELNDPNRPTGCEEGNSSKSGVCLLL

Pim-2(h) = biological target: T6, Pim-2(h) (Homo sapiens, UniProt Q9P1W9)
T6 construct: purchased Eurofins (KinaseProfiler)
T6 sequence (Q9P1W9 whole entry): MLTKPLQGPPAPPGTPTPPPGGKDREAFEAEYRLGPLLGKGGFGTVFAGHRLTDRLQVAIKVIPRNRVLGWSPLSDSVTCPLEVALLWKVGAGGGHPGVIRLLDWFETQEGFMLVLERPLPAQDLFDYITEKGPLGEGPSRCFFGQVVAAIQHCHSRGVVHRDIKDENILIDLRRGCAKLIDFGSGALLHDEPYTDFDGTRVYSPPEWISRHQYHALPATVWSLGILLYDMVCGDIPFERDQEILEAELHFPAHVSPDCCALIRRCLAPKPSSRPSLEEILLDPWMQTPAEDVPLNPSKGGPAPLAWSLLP

CK2α1(h) = biological target: T7, CK2α1(h) (Homo sapiens, UniProt P68400)
T7 construct: purchased Eurofins (KinaseProfiler)
T7 sequence (P68400 whole entry): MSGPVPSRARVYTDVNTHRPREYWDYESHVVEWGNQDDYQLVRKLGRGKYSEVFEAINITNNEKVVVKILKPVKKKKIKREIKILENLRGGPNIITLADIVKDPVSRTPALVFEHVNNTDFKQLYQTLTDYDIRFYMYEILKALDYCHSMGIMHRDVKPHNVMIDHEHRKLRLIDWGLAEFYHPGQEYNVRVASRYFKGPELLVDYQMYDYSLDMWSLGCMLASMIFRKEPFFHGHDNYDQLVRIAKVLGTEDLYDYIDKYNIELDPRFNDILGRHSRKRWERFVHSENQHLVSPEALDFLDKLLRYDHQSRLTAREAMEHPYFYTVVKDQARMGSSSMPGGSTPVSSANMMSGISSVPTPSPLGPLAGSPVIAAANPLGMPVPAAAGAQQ

DYRK1B(h) = biological target: T8, DYRK1B(h) (Homo sapiens, UniProt Q9Y463)
T8 construct: purchased Eurofins (KinaseProfiler)
T8 sequence (Q9Y463 whole entry): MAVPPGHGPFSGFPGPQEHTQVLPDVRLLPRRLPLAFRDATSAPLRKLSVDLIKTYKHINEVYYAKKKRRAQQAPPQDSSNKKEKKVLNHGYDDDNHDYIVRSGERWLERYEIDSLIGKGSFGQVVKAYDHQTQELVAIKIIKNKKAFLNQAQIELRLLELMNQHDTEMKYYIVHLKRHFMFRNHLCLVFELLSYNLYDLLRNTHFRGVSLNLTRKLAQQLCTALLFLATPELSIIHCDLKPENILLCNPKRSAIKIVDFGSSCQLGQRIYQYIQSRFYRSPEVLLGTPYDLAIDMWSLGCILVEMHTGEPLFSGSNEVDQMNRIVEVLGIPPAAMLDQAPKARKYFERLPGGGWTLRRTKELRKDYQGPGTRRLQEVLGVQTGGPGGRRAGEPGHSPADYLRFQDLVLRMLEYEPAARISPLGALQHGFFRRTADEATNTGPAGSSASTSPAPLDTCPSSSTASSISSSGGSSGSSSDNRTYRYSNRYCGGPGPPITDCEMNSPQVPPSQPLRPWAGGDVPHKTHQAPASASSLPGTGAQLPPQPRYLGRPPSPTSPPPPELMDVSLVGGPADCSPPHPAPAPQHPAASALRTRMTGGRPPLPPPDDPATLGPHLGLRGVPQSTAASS

Blk(h) = biological target: T9, Blk(h) (Homo sapiens, UniProt P51451)
T9 construct: purchased Eurofins (KinaseProfiler)

CLK4(h) = biological target: T10, CLK4(h) (Homo sapiens, UniProt Q9HAZ1)
T10 construct: purchased Eurofins (KinaseProfiler)
T10 sequence (Q9HAZ1 whole entry): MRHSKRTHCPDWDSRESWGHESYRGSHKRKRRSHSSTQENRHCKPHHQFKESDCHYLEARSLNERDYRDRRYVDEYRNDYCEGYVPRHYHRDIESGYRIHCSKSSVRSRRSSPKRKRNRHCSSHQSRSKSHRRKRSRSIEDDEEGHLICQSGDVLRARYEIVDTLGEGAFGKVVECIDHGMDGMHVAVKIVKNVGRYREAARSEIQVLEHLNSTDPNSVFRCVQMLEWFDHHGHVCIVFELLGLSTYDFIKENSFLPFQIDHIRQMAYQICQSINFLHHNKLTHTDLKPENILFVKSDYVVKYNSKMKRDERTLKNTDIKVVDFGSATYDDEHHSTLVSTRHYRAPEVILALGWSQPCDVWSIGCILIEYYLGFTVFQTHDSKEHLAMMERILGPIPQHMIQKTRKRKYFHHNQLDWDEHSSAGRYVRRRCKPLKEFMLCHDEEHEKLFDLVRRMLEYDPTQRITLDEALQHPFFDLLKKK

Which inhibition at 0.01 µM (EphA3(h); 10 nM) does the source give for COc1cc(OC)c(Cl)c(-c2ccc3c(NC(=O)c4ccc(N5CCNC(C)(C)C5)cc4)n[nH]c3n2)c1Cl [3D185] here?
The inhibition at 0.01 µM was 2%.

And the inhibition at 0.1 µM (EphA3(h); 100 nM)?
The inhibition at 0.1 µM was 14%.

What about the inhibition at 1 µM (EphA3(h); 1000 nM) of the same compound?
The inhibition at 1 µM was 30%.

And the inhibition at 0.01 µM (MLCK(h); 10 nM)?
The inhibition at 0.01 µM was 5%.

What about the inhibition at 0.1 µM (MLCK(h); 100 nM) of the same compound?
The inhibition at 0.1 µM was -1%.

And the inhibition at 1 µM (MLCK(h); 1000 nM)?
The inhibition at 1 µM was 11%.

What about the inhibition at 0.01 µM (PrKX(h); 10 nM) of the same compound?
Its inhibition at 0.01 µM is 8%.

And the inhibition at 0.1 µM (PrKX(h); 100 nM)?
The inhibition at 0.1 µM was 11%.

And the inhibition at 1 µM (PrKX(h); 1000 nM)?
The inhibition at 1 µM was 5%.

What about the inhibition at 0.01 µM (Ret(h); 10 nM) of the same compound?
The inhibition at 0.01 µM was 8%.

What about the inhibition at 0.1 µM (Ret(h); 100 nM) of the same compound?
The inhibition at 0.1 µM was 27%.

What about the inhibition at 1 µM (Ret(h); 1000 nM) of the same compound?
The inhibition at 1 µM was 80%.

What about the inhibition at 0.01 µM (GRK7(h); 10 nM) of the same compound?
Its inhibition at 0.01 µM is 9%.

And the inhibition at 0.1 µM (GRK7(h); 100 nM)?
The inhibition at 0.1 µM was 16%.

What about the inhibition at 1 µM (GRK7(h); 1000 nM) of the same compound?
Its inhibition at 1 µM is 27%.

What about the inhibition at 0.01 µM (Pim-2(h); 10 nM) of the same compound?
The inhibition at 0.01 µM was 11%.

And the inhibition at 0.1 µM (Pim-2(h); 100 nM)?
The inhibition at 0.1 µM was 3%.

And the inhibition at 1 µM (Pim-2(h); 1000 nM)?
The inhibition at 1 µM was 6%.

What about the inhibition at 0.01 µM (CK2α1(h); 10 nM) of the same compound?
The inhibition at 0.01 µM was 23%.

And the inhibition at 0.1 µM (CK2α1(h); 100 nM)?
Its inhibition at 0.1 µM is 21%.

And the inhibition at 1 µM (CK2α1(h); 1000 nM)?
The inhibition at 1 µM was 10%.

And the inhibition at 0.01 µM (DYRK1B(h); 10 nM)?
Its inhibition at 0.01 µM is 12%.

And the inhibition at 0.1 µM (DYRK1B(h); 100 nM)?
The inhibition at 0.1 µM was 3%.

What about the inhibition at 1 µM (DYRK1B(h); 1000 nM) of the same compound?
Its inhibition at 1 µM is 3%.

What about the inhibition at 0.01 µM (Blk(h); 10 nM) of the same compound?
Its inhibition at 0.01 µM is -18%.

What about the inhibition at 0.1 µM (Blk(h); 100 nM) of the same compound?
Its inhibition at 0.1 µM is 16%.

And the inhibition at 1 µM (Blk(h); 1000 nM)?
Its inhibition at 1 µM is 88%.

And the inhibition at 0.01 µM (CLK4(h); 10 nM)?
The inhibition at 0.01 µM was 5%.

What about the inhibition at 0.1 µM (CLK4(h); 100 nM) of the same compound?
The inhibition at 0.1 µM was 19%.

And the inhibition at 1 µM (CLK4(h); 1000 nM)?
Its inhibition at 1 µM is 27%.
